This note sets out measurements from US9725460B2, “Oridonin analogs, compositions, and methods related thereto” (THE BOARD OF REGENTS OF THE UNIVERSITY OF TEXAS SYSTEM, priority 2013, dated 2017).

Converted amounts (≈) assume the structure as drawn. Like-named read-outs stand apart in the source and are kept apart here.

One data set can be described thus: Aqueous solubility. The data set is classed as physicochemical. The note with it: for solubility: water; for Aqueous solubility compared with oridonin: FIG. 2.
Another data set relates to Panc-1. Description: Cancer cell proliferation assay, Panc-1. The note with it: Homo sapiens. The data set is classed as cell-based. The procedure: (§1) In Vitro Determination of Effects of Synthesized Diterpenoids on Cancer Cell Proliferation. […] Then MTT solution was removed, and 150 μL of DMSO was added to each well. Absorbance of all wells was determined by measuring OD at 550 nm after a 10 min incubation on a 96-well GlowMaxate absorbance reader (Promega, Madison, Wis.). Each individual compound was tested in quadruplicate wells for each concentration.

A further data set relates to MDA-MB-231. Description: MTT cancer cell proliferation assay, MDA-MB-231. The format is cell-based, human. The settings on record: Homo sapiens. The method in brief:
(§2)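 Cells seeded at 1×10^4/well and exposed 48 h to 0.01-100 μM compound (0.01, 0.1, 1, 5, 10, 100 μM) or DMSO. MTT added for a further 4 h, formazan dissolved in DMSO and OD read at 550 nm; quadruplicate wells per concentration. MCF-7 is ER-positive; MDA-MB-231 ER-negative, triple-negative.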

The subject of another data set is MCF-7. Description: MTT cancer cell proliferation assay, MCF-7. The format is cell-based, human. The settings on record: Homo sapiens. In a few lines: as §2
A further data set concerns AsPC1. Description: Cancer cell proliferation assay, AsPC1. The data set is classed as cell-based. The settings on record: Homo sapiens. As for the experimental part:
as §1

For another data set, the system named is DU145. Description: Cancer cell proliferation assay, DU145. The data set is classed as cell-based. The settings on record: Homo sapiens.
Data set [1] deals with breast, pancreatic, and prostate cancer cell lines. Description: Anti-proliferation effects against cancer cell lines. The data set is classed as cell-based, human. The note with it: summary of Tables 1 and 2. The procedure: In Vitro Determination of Effects of Synthesized Diterpenoids on Cancer Cell Proliferation. Breast cancer cell lines MCF-7, MDA-MB-231, […] and MCF/ADR were seeded in 96-well plates at a density of 1×10^4 cells/well and treated with DMSO and 0.01, 0.1, 1, 5, 10, and 100 μM of individual compound for 48 h, and then 20 μL of 3-(4,5-dimethylthiazol-2-yl)-2,5-diphenyltetrazolium bromide (MTT) (5 mg/mL in PBS) was added to each well and further incubated for another 4 h. Then MTT solution was removed, and 150 μL of DMSO was added to each well. Absorbance of all wells was determined by measuring OD at 550 nm after a 10 min incubation on a 96-well GlowMaxate absorbance reader (Promega, Madison, Wis.). Each individual compound was tested in quadruplicate wells for each concentration.

The mark [2] stands for this setting: in the form of HCl salt, read-out: Aqueous solubility (saturated concentration).
[3] abbreviates: PANC-1, Table 1a, pancreatic cancer, read-out: IC50 (μM) Panc-1.
Where [4] appears, read: PANC-1, Table 2b, mean of at least three experiments, read-out: Effect on proliferation Panc-1 (IC50).
Where [5] appears, read: MDA-MB-231, Table 1a, breast cancer, read-out: IC50 (μM) MDA-MB-231.
[6] abbreviates: MDA-MB-231, Table 2b, mean of at least three experiments, read-out: Effect on proliferation MDA-MB-231 (ER negative) (IC50).
Setting [7] is: MCF7, Table 1a, breast cancer, read-out: IC50 (μM) MCF-7.
[8] abbreviates: MCF7, Table 2b, mean of at least three experiments, read-out: Effect on proliferation MCF-7 (ER positive) (IC50).
Setting [9] is: ASPC1, Table 1a, pancreatic cancer, read-out: IC50 (μM) AsPC1.
[10] abbreviates: ASPC1, Table 2b, mean of at least three experiments, read-out: Effect on proliferation AsPC1 (IC50).
Setting [11] is: DU-145, Table 1a, prostate cancer, read-out: IC50 (μM) DU145.
Setting [12] is: DU-145, Table 2b, mean of at least three experiments, read-out: Effect on proliferation DU145 (IC50).

As to `C=C1C(=O)[C@@]23C(CCC1[C@H]2O)[C@@]12COC3(O)[C@@H](O)C1C(C)(C)Cc1sc(NCCN3CCCCC3)nc12` (stereo in doubt) [CYD-6-20, (6S,7S,7aR,10R,12bR,15R)-6,7,15-trihydroxy-5,5-dimethyl-9-methylene-2-((2-(piperidin-1-yl)ethyl)amino)-5,5a,6,7,10,11,12,12a-octahydro-4H-7,12b(epoxymethano)-7a,10-methanocyclohepta[7,8]naphtho[1,2-d]thiazol-8(9H)-one], the solubility in the data set “Aqueous solubility” (setting [2]) is over 100 mg/mL. The IC50 in the data set on Panc-1 (setting [3]) is 1.54 µM; in the data set on Panc-1 (setting [4]), 1.5 µM; in the data set on MDA-MB-231 (setting [5]), 1.83 µM; with MDA-MB-231 (setting [6]), 1.8 µM; in the data set on MCF-7 (setting [7]), 1 µM; in the data set with MCF-7 (setting [8]) it was 1 µM. Besides, the IC50 stood at 1.1 µM with AsPC1 (setting [9]), 1.1 µM in the data set on AsPC1 (setting [10]), 1.16 µM in the data set on DU145 (setting [11]) and 1.2 µM with DU145 (setting [12]).

On to `C=C1C(=O)[C@]23[C@H](O)[C@H]1CC[C@H]2[C@@]12CO[C@]3(O)[C@@H](O)[C@@H]1C(C)(C)Cc1sc(NC)nc12` [CYD-5-54, (5aR,6S,7S,7aR,10S,12aS,12bR,15R)-6,7,15-trihydroxy-5,5-dimethyl-2-(methylamino)-9-methylene-5,5a,6,7,10,11,12,12a-octahydro-4H-7,12b-(epoxymethano)-7a,10-methanocyclohepta[7,8]naphtho[1,2-d]thiazol-8(9H)-one], for which, in data set [1], the “IC50 values, anti-proliferation effects against cancer cell lines” value (“IC50 values, anti-proliferation effects” below) is listed as “low micromolar to nanomolar”. Besides, the “Aqueous solubility compared with oridonin” value in the data set “Aqueous solubility” was “significantly improved solubility”. Moreover, in “Aqueous solubility” (HCl salt vs oridonin (1.29 mg/mL)), the “Improvement of aqueous solubility in comparison with oridonin” value is about 62 fold. For the same compound, in the data set “Aqueous solubility” (setting [2]), the solubility is 81.2 mg/mL. Besides, the IC50 with Panc-1 (setting [3]) was 2.33 µM; in the data set with Panc-1 (setting [4]), 2.3 µM; in the data set on MDA-MB-231 (setting [5]) it was 2.06 µM; in the data set on MDA-MB-231 (setting [6]), 2.1 µM; in the data set with MCF-7 (setting [7]), 1.28 µM; in the data set on MCF-7 (setting [8]), 1.3 µM. Besides, the IC50 in the data set with AsPC1 (setting [9]) was found to be 1.84 µM; in the data set with AsPC1 (setting [10]) it was 1.8 µM; in the data set with DU145 (setting [11]), 4.05 µM; in the data set with DU145 (setting [12]) it was 4.1 µM.

As for `C=C1C(=O)[C@@]23C(CC[C@H]1[C@H]2O)[C@@]12CO[C@]3(O)[C@@H](O)C1C(C)(C)Cc1sc(NC3CCCCC3)nc12` (stereo partly drawn) [CYD-6-17-2, (6S,7S,7aR,10R,12bR,15R)-2-(cyclohexylamino)-6,7,15-trihydroxy-5,5-dimethyl-9-methylene-5,5a,6,7,10,11,12,12a-octahydro-4H-7,12b-(epoxymethano)-7a,10-methanocyclohepta[7,8]naphtho[1,2-d]thiazol-8(9H)-one], the “IC50 values, anti-proliferation effects” value in data set [1] is recorded as “low micromolar to nanomolar”. Further, the IC50 was 3.74 µM in the data set on Panc-1 (setting [3]); 3.7 µM in the data set with Panc-1 (setting [4]); 0.83 µM with MDA-MB-231 (setting [5]); 0.8 µM with MDA-MB-231 (setting [6]); 0.94 µM in the data set with MCF-7 (setting [7]); 0.9 µM in the data set with MCF-7 (setting [8]). The IC50 in the data set on AsPC1 (setting [9]) turned out to be 1.65 µM; in the data set on AsPC1 (setting [10]), 1.7 µM; with DU145 (setting [11]), 1.82 µM; in the data set on DU145 (setting [12]), 1.8 µM.

Turning to `C=C1C(=O)[C@@]23C(CC[C@H]1[C@H]2O)[C@@]12CO[C@]3(O)[C@@H](O)C1C(C)(C)Cc1sc(C)nc12` (stereo partly drawn) [CYD-6-19, (6S,7S,7aR,10R,12bR,15R)-6,7,15-trihydroxy-2,5,5-trimethyl-9-methylene-5,5a,6,7,10,11,12,12a-octahydro-4H-7,12b-(epoxymethano)-7a,10-methanocyclohepta[7,8]naphtho[1,2-d]thiazol-8(9H)-one], in “Aqueous solubility”, the “Aqueous solubility compared with oridonin” value was “significantly improved solubility”. Moreover, in “Aqueous solubility” (compound as such, read-out: Aqueous solubility), the solubility worked out at 4.47 mg/mL (≈ 10.7 mM). In addition, the IC50 stood at 7.8 µM in the data set on Panc-1 (PANC-1, read-out: Effect on proliferation Panc-1 (IC50)); 7.83 µM with Panc-1 (PANC-1, read-out: IC50 (μM) Panc-1); 6.9 µM in the data set on MDA-MB-231 (MDA-MB-231, read-out: Effect on proliferation MDA-MB-231 (ER negative) (IC50)); 6.88 µM with MDA-MB-231 (MDA-MB-231, read-out: IC50 (μM) MDA-MB-231); 2.6 µM with MCF-7 (MCF7, read-out: Effect on proliferation MCF-7 (ER positive) (IC50)); 2.63 µM in the data set with MCF-7 (MCF7, read-out: IC50 (μM) MCF-7). The IC50 in the data set with AsPC1 (ASPC1, read-out: Effect on proliferation AsPC1 (IC50)) was found to be 6.5 µM; in the data set on AsPC1 (ASPC1, read-out: IC50 (μM) AsPC1) it was 6.46 µM; in the data set with DU145 (DU-145, read-out: Effect on proliferation DU145 (IC50)), 7.6 µM; with DU145 (DU-145, read-out: IC50 (μM) DU145), 7.63 µM.

In the case of `C=C1C(=O)[C@]23[C@H](O)[C@H]1CC[C@H]2[C@@]12CO[C@]3(O)[C@@H](O)[C@@H]1C(C)(C)Cc1sc(NCCCC)nc12` [CYD-6-28, (5aR,6S ,7S,7aR,10S,12aS,12bR,15R)-2-(butylamino)-6,7,15-trihydroxy-5,5-dimethyl-9-methylene-5,5a,6,7,10,11,12,12a-octahydro-4H-7,12b-(epoxymethano)-7a,10-methanocyclohepta[7,8]naphtho[1,2-d]thiazol-8(9H)-one], in data set [1], the “IC50 values, anti-proliferation effects” value is on record as “low micromolar to nanomolar”. In addition, the IC50 came to 4.01 µM in the data set with Panc-1 (setting [3]); 4 µM with Panc-1 (setting [4]); 1.06 µM in the data set with MDA-MB-231 (setting [5]); 1.1 µM in the data set with MDA-MB-231 (setting [6]); 0.59 µM with MCF-7 (setting [7]); 0.6 µM with MCF-7 (setting [8]). Moreover, the IC50 with AsPC1 (setting [9]) was 1.39 µM; with AsPC1 (setting [10]) it was 1.4 µM; with DU145 (setting [11]), 4.22 µM; with DU145 (setting [12]), 4.2 µM.

As for `C=C1C(=O)[C@]23[C@H](O)[C@H]1CC[C@H]2[C@@]12CO[C@]3(O)[C@@H](O)[C@@H]1C(C)(C)Cc1sc(NC(=N)N)nc12` [CYD-6-29, 1-((5aR,6S,7S,7aR,10S,12aS,12bR,15R)-6,7,15-trihydroxy-5,5-dimethyl-9-methylene-8-oxo-5,5a,6,7,8,9,10,11,12,12a-decahydro-4H-7,12b-(epoxymethano)-7a,10-methanocyclohepta[7,8]naphtho[1,2-d]thiazol-2-yl)guanidine], the solubility in the data set “Aqueous solubility” (setting [2]) is over 100 mg/mL. The IC50 in the data set with Panc-1 (setting [3]) was 15.4 µM; in the data set with Panc-1 (setting [4]), over 10 µM; in the data set on MDA-MB-231 (setting [5]), over 10 µM; with MDA-MB-231 (setting [6]), over 10 µM; in the data set on MCF-7 (setting [7]), 3.43 µM; in the data set on MCF-7 (setting [8]), 3.4 µM. Further, the IC50 with AsPC1 (setting [9]) was over 10 µM; in the data set on AsPC1 (setting [10]) it was over 10 µM; in the data set on DU145 (setting [11]), 35.9 µM; in the data set with DU145 (setting [12]), over 10 µM.

In the case of `C=C1C(=O)[C@]23[C@H](O)[C@H]1CC[C@H]2[C@@]12CO[C@]3(O)[C@@H](O)[C@@H]1C(C)(C)Cc1sc(NC(C)C)nc12` [CYD-6-30, (5aR,6S,7S,7aR,10S,12aS,12bR,15R)-6,7,15-trihydroxy-2-(isopropylamino)-5,5-dimethyl-9-methylene-5,5a,6,7,10,11,12,12a-octahydro-4H-7,12b-(epoxymethano)-7a,10-methanocyclohepta[7,8]naphtho[1,2-d]thiazol-8(9H)-one], the “IC50 values, anti-proliferation effects” value in data set [1] is reported as “low micromolar to nanomolar”. The IC50 was 3.27 µM with Panc-1 (setting [3]); 3.3 µM in the data set with Panc-1 (setting [4]); 0.28 µM in the data set with MDA-MB-231 (setting [5]); 0.3 µM with MDA-MB-231 (setting [6]); 0.82 µM in the data set with MCF-7 (setting [7]); 0.8 µM in the data set on MCF-7 (setting [8]). The IC50 is 1.45 µM in the data set with AsPC1 (setting [9]), 1.4 µM with AsPC1 (setting [10]), 5.31 µM with DU145 (setting [11]) and 5.3 µM in the data set on DU145 (setting [12]).
